{"source": "patent US20220184222A1", "about": "“BICYCLE TOXIN CONJUGATES AND USES THEREOF” (BicycleTx Limited, priority 2019, published 2022)", "type_in_all_cases": "in vivo, Mus musculus", "key": {"CTG-2540": {"system": "CTG-2540", "experiment": "Champions TumorGraft NSCLC PDX efficacy, model CTG-2540", "protocol": "(§1) Mice were implanted subcutaneously into the left flank with tumor fragments from one of the various models. After tumors grew to an average of 150-300 mm^3, mice were treated by IV administration Q7Dx4 (n=2) with vehicle or 3 mg/kg of BT5528. Effects on tumor growth were evaluated by measuring percent tumor growth inhibition (% TGI), and the number of complete responders (CR), partial responders (PR), and tumor-free survivors (TFS). Tolerability was assessed by body weight loss, lethality, and clinical signs of adverse treatment-related side effects. Tumor volumes and body weights were measured twice a week.\n(§2) Dosing solutions of BT5528 […] were pre-formulated. These dosing solutions were stored at −80° C. in the dark. On each day of dosing, a frozen aliquot of each test agent was thawed, stored at 2-8° C. and used for dosing.\n(§3) The animals used in this study are described below: • Species: Mus musculus • Strain: Athymic Nude-Foxn1^nu (immune-compromised) • Source: Envigo (Indianapolis, Ind., USA) • Number of animals per group: 2 • Age and sex: At least 6-8 weeks of age at start of dosing, female • Weight: At least 18 grams at start of dosing • Acclimation period: 3 days\n(§4) Stock mice were implanted with tumor cells from Champions TumorGraft® models CTG-0160, CTG-0170, CTG-0178, CTG-0192, CTG-0363, CTG-0808, CTG-0838, CTG-0848, CTG-1212, CTG-1502, CTG-1535, CTG-2011, CTG-2393, CTG-2539 or CTG-2540. After the tumors reached 1000-1500 mm^3, they were harvested and the tumor fragments (approximately 5×5×5 mm^3) were implanted SC in the left flank of the female study mice. Each animal was implanted with a specific passage lot and documented. Tumor growth was monitored twice a week using digital calipers and the tumor volume (TV) was calculated using the formula (0.52×[length×width^2]). When the TV reached an average volume of 150-300 mm^3, animals were matched by tumor size and assigned into Vehicle Control and treatment groups (n=2/group) and dosing was initiated on Day 0. After the initiation of dosing on Day 0, animals were weighed twice per week using a digital scale and TV was measured twice per week and also on the final day of study. The study was completed when the mean tumor volume of Vehicle Control reached 1500 mm^3 or up to Day 60, whichever occurred first.\n(§5) Beginning on Day 0, animals were observed daily and weighed twice weekly using a digital scale; data including individual and mean gram weights, mean percent weight change versus Day 0 (% vD0) were recorded for each group and % vD0 plotted at study completion. […] Treatment resulting in a mean % vD0>20% and/or >10% mortality was considered above the maximum tolerated dose. Maximum mean % vD0 (weight nadir) for each treatment group was reported at study completion.\n(§6) Inhibition of tumor growth was determined by calculating the percent TGI (100%×[1−(final MTV−initial MTV of a treated group)/(final MTV−initial MTV of the control group)]). Treatment started on Day 0.\n(§7) Additional endpoints used to evaluate efficacy were: the number of complete responders (CR), partial responders (PR), and tumor-free survivors (TFS). PRs were considered exclusive of CRs, as were TFS.\n(§8) Statistical analyses of anti-tumor efficacy were performed using one-way ANOVA followed by Dunnett's multiple comparisons test (GraphPad Prism version 8.2.0). Significant p-values=<0.05.\nAnimals were dosed according to the schedule on Table 7-1. The study was terminated on Day 28."}, "CTG-2539": {"system": "CTG-2539", "experiment": "Champions TumorGraft NSCLC PDX efficacy, model CTG-2539", "protocol": "as §1, with “After tumors grew to an average of 150-300 mm^3, mice were treated by IV administration Q7Dx4 (n=2) with vehicle or 3 mg/kg of BT5528.” left out\n[…] These dosing solutions were stored at −80° C. in the dark. On each day of dosing, a frozen aliquot of each test agent was thawed, stored at 2-8° C. and used for dosing.\nas §3, §4, §5, §6, §7, §8\nAnimals were dosed according to the schedule on Table 7-1. The Vehicle Control reached endpoint on Day 21 and the BT5528 group reached endpoint on Day 18. The study was terminated on Day 25."}, "CTG-0170": {"system": "CTG-0170", "experiment": "Champions TumorGraft NSCLC PDX efficacy, model CTG-0170", "protocol": "as §1, §2, §3, §4, §5, §6, §7, §8\nAnimals were dosed according to the schedule on Table 7-1. The Vehicle Control group reached endpoint of average tumor volume >1500 mm^3 on Day 14 and was removed from the study. The study was terminated on Day 28. […] Therefore, the tumor volumes on Day 11 were used for analysis of anti-tumor activity in order to include all animals."}, "CTG-0160": {"system": "CTG-0160", "experiment": "Champions TumorGraft NSCLC PDX efficacy, model CTG-0160", "protocol": "as §1, §2, §3, §4, §5, §6, §7, §8\nAnimals were dosed according to the schedule on Table 7-1. The Vehicle Control group reached endpoint of average tumor volume >1500 mm^3 on Day 21 and was removed from the study. The study was terminated on Day 28. Therefore, the tumor volumes on Day 21 were used for analysis of anti-tumor activity."}, "CTG-1535": {"system": "CTG-1535", "experiment": "Champions TumorGraft NSCLC PDX efficacy, model CTG-1535", "protocol": "as §1, with “After tumors grew to an average of 150-300 mm^3, mice were treated by IV administration Q7Dx4 (n=2) with vehicle or 3 mg/kg of BT5528.” left out\nas §2, §3, §4, §5, §6, §7, §8\nAnimals were dosed according to the schedule on Table 7-1. The study was terminated on Day 35."}, "[1]": {"conditions": "CTG-2540, 3 mg/kg IV Q7Dx4, Day 0-28"}, "[2]": {"conditions": "CTG-2539, 3 mg/kg IV Q7Dx3, Day 0-25"}, "[3]": {"conditions": "CTG-0170, 3 mg/kg IV Q7Dx4, Day 0-28"}, "[4]": {"conditions": "CTG-0160, 3 mg/kg IV Q7Dx4, Day 0-28"}, "[5]": {"conditions": "CTG-1535, 3 mg/kg IV Q7Dx5, Day 0-35"}}, "note": "Starred links: 1 amine or outer side, 2 acyl side, 3 side chain; linkers in the order of their positions; H or OH if unused. Non-standard residues stand in square brackets, D forms with d. Residues, ends and D or L forms follow the SMILES beside them. *: point of attachment. Dolaproine = CO[C@@H]([C@@H]1CCCN1)[C@@H](C)C(=O)O; Dil = CC[C@H](C)[C@H](NC)[C@@H](CC(=O)O)OC; PABC = O=C(OCc1ccc(N[*:1])cc1)[*:2]; X1 = O=C(CCCC(=O)*)ON1C(=O)CCC1=O; X2 = C[C@@H](N*)[C@@H](O)c1ccccc1; Cit = NC(=O)NCCC[C@H](N)C(=O)O; NMeV = CN[C@H](C(=O)O)C(C)C", "data": [{"smiles": "CC[C@H](C)[C@@H]([C@@H](CC(=O)N1CCC[C@H]1[C@H](OC)[C@@H](C)C(=O)N[C@H](C)[C@@H](O)c1ccccc1)OC)N(C)C(=O)[C@@H](NC(=O)[C@H](C(C)C)N(C)C(=O)OCc1ccc(NC(=O)[C@H](CCCNC(N)=O)NC(=O)[C@@H](NC(=O)CCCC(=O)ON2C(=O)CCC2=O)C(C)C)cc1)C(C)C", "note": "[BT5528] (X1-V[Cit][PABC][NMeV]V[Dil][Dolaproine]-X2)", "values": [{"measurement": "mean body weight loss", "setting": "CTG-2540; 3 mg/kg IV Q7Dx4", "value": "no mean body weight loss"}, {"measurement": "MTV (mean tumor volume)", "setting": "CTG-2540; 3 mg/kg IV Q7Dx4, Day 28", "value": "692±156", "unit": "mm^3"}, {"measurement": "TGI", "setting": "CTG-2540; 3 mg/kg IV Q7Dx4, Day 28", "value": 75, "unit": "%"}, {"measurement": "# CR (complete responders)", "setting": "CTG-2540; [1]", "value": "0/0/0"}, {"measurement": "# PR (partial responders)", "setting": "CTG-2540; [1]", "value": "0/0/0"}, {"measurement": "# TFS (tumor-free survivors)", "setting": "CTG-2540; [1]", "value": "0/0/0"}, {"measurement": "% TGI", "setting": "CTG-2540; CTG-2540, 3 mg/kg IV Q7Dx4, Day 28", "value": 75, "unit": "%"}, {"measurement": "Day 28 Tumor Volume Mean TV ± SEM", "setting": "CTG-2540; CTG-2540, BT5528 3 mg/kg IV Q7Dx4, Day 28, n=2", "value": "692 ± 156", "unit": "mm^3"}, {"measurement": "MTV (mean tumor volume)", "setting": "CTG-2539; 3 mg/kg IV Q7Dx3, Day 18", "value": "2029±594", "unit": "mm^3"}, {"measurement": "TGI", "setting": "CTG-2539; 3 mg/kg IV Q7Dx3, Day 18", "value": "−51", "unit": "%"}, {"measurement": "# CR (complete responders)", "setting": "CTG-2539; [2]", "value": "0/0/0"}, {"measurement": "# PR (partial responders)", "setting": "CTG-2539; [2]", "value": "0/0/0"}, {"measurement": "# TFS (tumor-free survivors)", "setting": "CTG-2539; [2]", "value": "0/0/0"}, {"measurement": "% TGI", "setting": "CTG-2539; CTG-2539, 3 mg/kg IV Q7Dx3, Day 18", "value": "−51", "unit": "%"}, {"measurement": "Day 18 Tumor Volume Mean TV ± SEM", "setting": "CTG-2539; CTG-2539, BT5528 3 mg/kg IV Q7Dx3, Day 18, n=2", "value": "2029 ± 594", "unit": "mm^3"}, {"measurement": "body weight and tolerability of the other animal in the group", "setting": "CTG-0170; 3 mg/kg IV Q7Dx4", "value": "no body weight loss and tolerated the BT5528 well"}, {"measurement": "prior body weight loss of the animal found dead on Day 14", "setting": "CTG-0170; 3 mg/kg IV Q7Dx4", "value": 24.8, "unit": "%"}, {"measurement": "MTV (mean tumor volume)", "setting": "CTG-0170; 3 mg/kg IV Q7Dx4, Day 11", "value": "268±15", "unit": "mm^3"}, {"measurement": "TGI", "setting": "CTG-0170; 3 mg/kg IV Q7Dx4, Day 11", "value": 94, "unit": "%"}, {"measurement": "animals found dead", "setting": "CTG-0170; 3 mg/kg IV Q7Dx4, n=2, cause of death unknown", "value": "one animal in the BT5528 group was found dead on Day 14"}, {"measurement": "# CR (complete responders)", "setting": "CTG-0170; [3]", "value": "0/0/0"}, {"measurement": "# PR (partial responders)", "setting": "CTG-0170; [3]", "value": "0/0/0"}, {"measurement": "# TFS (tumor-free survivors)", "setting": "CTG-0170; [3]", "value": "0/0/0"}, {"measurement": "% TGI", "setting": "CTG-0170; CTG-0170, 3 mg/kg IV Q7Dx4, Day 11", "value": 94, "unit": "%"}, {"measurement": "Day 11 Tumor Volume Mean TV ± SEM", "setting": "CTG-0170; CTG-0170, BT5528 3 mg/kg IV Q7Dx4, Day 11, n=2", "value": "268 ± 15", "unit": "mm^3"}, {"measurement": "MTV (mean tumor volume)", "setting": "CTG-0160; 3 mg/kg IV Q7Dx4, Day 21", "value": "400±187", "unit": "mm^3"}, {"measurement": "TGI", "setting": "CTG-0160; 3 mg/kg IV Q7Dx4, Day 21", "value": 87, "unit": "%"}, {"measurement": "# CR (complete responders)", "setting": "CTG-0160; [4]", "value": "0/0/0"}, {"measurement": "# PR (partial responders)", "setting": "CTG-0160; [4]", "value": "0/0/0"}, {"measurement": "# TFS (tumor-free survivors)", "setting": "CTG-0160; [4]", "value": "0/0/0"}, {"measurement": "% TGI", "setting": "CTG-0160; CTG-0160, 3 mg/kg IV Q7Dx4, Day 21", "value": 87, "unit": "%"}, {"measurement": "Day 21 Tumor Volume Mean TV ± SEM", "setting": "CTG-0160; CTG-0160, BT5528 3 mg/kg IV Q7Dx4, Day 21, n=2", "value": "400 ± 187", "unit": "mm^3"}, {"measurement": "MTV (mean tumor volume)", "setting": "CTG-1535; 3 mg/kg IV Q7Dx5, Day 35", "value": "307±91", "unit": "mm^3"}, {"measurement": "TGI", "setting": "CTG-1535; 3 mg/kg IV Q7Dx5, Day 35", "value": 85, "unit": "%"}, {"measurement": "# CR (complete responders)", "setting": "CTG-1535; [5]", "value": "0/0/0"}, {"measurement": "# PR (partial responders)", "setting": "CTG-1535; [5]", "value": "0/0/0"}, {"measurement": "# TFS (tumor-free survivors)", "setting": "CTG-1535; [5]", "value": "0/0/0"}, {"measurement": "% TGI", "setting": "CTG-1535; CTG-1535, 3 mg/kg IV Q7Dx5, Day 35", "value": 85, "unit": "%"}, {"measurement": "Day 35 Tumor Volume Mean TV ± SEM", "setting": "CTG-1535; CTG-1535, BT5528 3 mg/kg IV Q7Dx5, Day 35, n=2", "value": "307 ± 91", "unit": "mm^3"}]}]}
